In patent US20240247030A1, “TARGETED DELIVERY OF TERTIARY AMINE-CONTAINING DRUG SUBSTANCES” (Seagen Inc., priority 2014, published 2024):
Values after ≈ are worked out from the molar mass of the structure shown.

Assays:
HL60 AML cells = test: cells; format: cell-based; details: 96 hours; for IC50: Homo sapiens, HL-60, 96 h, read-out: IC50, HL60, AML, Table 13, free drug; for IC50, HL60, AML: Table 14, cOKT-9 conjugate
Method: (§1) In vitro assays. Cells cultured in log-phase growth were seeded for 24 h in 96-well plates containing 150 μL RPMI 1640 supplemented with 20% FBS. Serial dilutions of antibody-drug conjugates in cell culture media were prepared at 4× working concentrations; 50 μL of each dilution was added to the 96-well plates. Following addition of ADC, cells were incubated with test articles for 4 d at 37° C. After 96 h, growth inhibition was assessed by CellTiter-Glo™ (Promega, Madison, W1) and luminescence was measured on a plate reader. The IC50 value, determined in triplicate, is defined here as the concentration that results in a 50% reduction in cell growth relative to untreated controls.

HEL9217 AML cells = test: In vitro cytotoxicity (CellTiter-Glo, 96 h); format: cell-based; details: Homo sapiens, HEL 92.1.7, 96 h, read-out: IC50, HEL9217, MDR+ AML
786-O RCC cells = test: In vitro cytotoxicity (CellTiter-Glo, 96 h); format: cell-based; details: Homo sapiens, 786-0, 96 h, read-out: IC50, 786-O, MDR+ RCC
L428 MDR+ HL cells = test: In vitro cytotoxicity (CellTiter-Glo, 96 h); format: cell-based; details: for IC50, L428, MDR+ HL: Table 14, cOKT-9 conjugate
L428 cells = test: Intracellular drug release (LC-MS/MS, 24 hr); format: cell-based; details: Table 12, free drug @ 50 nM
Method: (§2) Intracellular drug release. TFlα, L428, and HCT-15 cells were used for the study. Cells that had been cultured under normal conditions were harvested and washed into fresh medium at ˜5×10^5 cells/mL. For each treatment condition, 5-15×10^6 cells were plated in T25 or T150 flasks. cOKT9-5023 (8-drugs/Ab) was added at 1 μg/mL to cultures and they were incubated at 37° C., 5% CO2 for 24 hr. For suspension cells, a known volume of cell culture was harvested by centrifugation (500×g, 5 min, 4° C.), and an aliquot of the medium was removed and stored for mass spectral analysis (−20° C.). For adherent cells the medium was carefully removed (an aliquot stored for mass spectral analysis) and the cells lifted with trypsin-EDTA followed by centrifugation (500×g, 5 min, 4° C.) to collect the cell pellet. For both suspension and adherent cells, the harvested cell pellets were resuspended in ice cold PBS and an aliquot was removed for enumeration and determination of average cell diameters using a Vi-Cell XR2.03 cell viability analyzer (Beckman Coulter, Fullerton, CA). The remaining cell suspensions were pelleted (500×g, 5 min) and then washed once more with 1 mL of ice cold PBS. The resulting pellets were stored at −20° C.
(§3) Untreated samples were generated using untreated cell pellets and culture medium for use in calibration curves. Untreated cell pellets were spiked with 4 μL of 25× standard analyte. Both spiked and treated cell pellets were suspended by vortexing in 400 μL of MeOH containing internal standard and placed at −20° C. for 15 min. The samples were then centrifuged at 16,000×g and the supernatants were prepared for solid phase extraction. Untreated culture medium samples (0.5 mL) were spiked with 4 μL of 25× standard. Both spiked and treated culture media were mixed with 10 μL of internal standard and prepared for solid phase extraction. Samples were subjected to solid phase extraction and the recovered drug-containing solutions were dried and reconstituted for quantification by LC-MS/MS. To derive an equation for the quantitation of released drug in the experimental unknown samples, the peak area for each drug standard was divided by the peak area obtained for the internal standard. The resultant peak area ratios were plotted as a function of the standard spiked amounts and the data points were fitted to a curve using linear regression. The peak area ratios obtained for released drug to internal standard in the experimental samples were converted to drug amounts using the derived equation.
(§4) MDR cell lines that are CD71^+ are exposed to an LDC (1 μg/mL) comprised of and antibody targeting CD71 (cOKT9) and a quaternized MDR inhibitor (Tariquidar™). The LDC composition designated as cOKT9-gluc4-T was obtained from compound 36 of Scheme 6 and predominately contains LDCs having 8 D^+ units wherein D^+ is quaternized Tariquidar. The predominate LDC of the composition, after controlled hydrolysis of the succinimide ring system is represented by the structure of: […]

TF1a cells = test: Intracellular drug release (LC-MS/MS, 24 hr); format: cell-based; details: Table 12
Method: as §2, §3, §4

HCT-15 cells = test: Intracellular drug release (LC-MS/MS, 24 hr); format: cell-based; details: Table 12, free drug @ 50 nM
Method: as §2, §3, §4

[1] = J. Med. Chem., 2009, 52, 238-240; cited from earlier work
[2] = tested on: L540cy Hodgkin lymphoma cells; test: In vitro cytotoxicity (CellTiter-Glo, 96 h); format: cell-based; details: for IC50, L540cy, HL: Table 14, cOKT-9 (anti-transferrin receptor) conjugate, DAR 8 (30) or 6.7 (192), 96 hours
HCT-116 CRC cells = format: cell-based; details: Table 14; cOKT-9 conjugate, 96 hours
Method: as §1

KM-H2 HL cells = format: cell-based; details: Table 14; cOKT-9 conjugate, 96 hours
[3] = tested on: co-culture of L540cy:U268Luc+ cells; test: In vitro cytotoxicity, bystander co-culture; format: cell-based; details: cAC10 conjugate obtained from compound 30; CD30+ and CD30- cells co-cultured
Method: as §1
The results of Table 2 and Table 3 indicate that potent and immunologically specific Ligand Drug Conjugates are obtained when a tubulysin is incorporated into such constructs as a quaternized drug unit and that such conjugates are active against multi-resistant cell lines. […] L540cy are CD30+ and U266 are CD30^−

panel of cell lines = test: In vitro cytotoxicity, statements across a panel of cell lines; format: cell-based; details: cOKT-9 conjugates, cell lines of Table 14
Method: as §1

Karpas299 ALCL cells = test: In vitro cytotoxicity (CellTiter-Glo, 96 h); format: cell-based; details: Table 4
Method: as §1

Ramos NHL cells = test: In vitro cytotoxicity (CellTiter-Glo, 96 h); format: cell-based; details: Table 4
Method: as §1

RL cells = test: In vitro cytotoxicity (CellTiter-Glo, 96 h); format: cell-based; details: Table 4
Method: as §1

[4] = Table 4, quaternized auristatin E ADC, 8 D+/Ab
[5] = quaternized auristatin E ADC, 8 D+/Ab, CD30-, CD19+

Molecule: CC[C@H](C)[C@H](NC(=O)[C@H]1CCCCN1C)C(=O)N(C)[C@H](C[C@@H](OC(C)=O)c1nc(C(=O)N[C@@H](Cc2ccccc2)C[C@H](C)C(=O)O)cs1)C(C)C [Compound 26, Tubulysin M, reference compound]
- IC50 (HL60 AML cells): 0.2 nM
- IC50 (HEL9217 AML cells): 0.4 nM

Molecule: CC[C@H](C)[C@H](NC(=O)[C@H]1CCCCN1C)C(=O)N(C)[C@H](C[C@@H](OC(C)=O)c1nc(C(=O)N[C@@H](Cc2ccccc2)C[C@H](C)C(=O)NN)cs1)C(C)C [Compound 190, (1R,3R)-3-((2S,3S)—N,3-dimethyl-2-((R)-1-methylpiperidine-2-carboxamido)pentanamido)-1-(4-(((2R,4S)-5-hydrazinyl-4-methyl-5-oxo-1-phenylpentan-2-yl)carbamoyl)thiazol-2-yl)-4-methylpentyl acetate]
- IC50 (786-O RCC cells): 4 nM
- IC50 (HL60 AML cells): 0.8 nM
- IC50 (HEL9217 AML cells): 4 nM
- IC50 (L428 MDR+ HL cells; Homo sapiens, L-428, 96 h, read-out: IC50, L428, MDR+ HL, Table 13, free drug, 96 hours): 1 nM

Molecule: COc1cc2c(cc1OC)CN(CCc1ccc(NC(=O)c3cc(OC)c(OC)cc3NC(=O)c3cnc4ccccc4c3)cc1)CC2 [Free drug, Tariquidar]
- Intracellular drug, L428 (L428 cells): 4.846 µM
- extracellular drug, L428 (L428 cells; parenthetic value): 47.0 nM
- Intracellular drug, TF1a (TF1a cells; free drug (Tariquidar) @ 50 nM): 3.575 µM
- extracellular drug, TF1a (TF1a cells; free drug @ 50 nM, parenthetic: free drug that remains outside the cell): 43.8 nM
- Intracellular drug, HCT-15 (HCT-15 cells): 6.649 µM
- extracellular drug, HCT-15 (HCT-15 cells; parenthetic value): 44.3 nM

Molecule: CC[C@H](C)[C@H](NC(=O)[C@H]1CCCCN1C)C(=O)N[C@H](C[C@@H](O)c1nc(C(=O)N[C@@H](Cc2ccccc2)C[C@H](C)C(=O)O)cs1)C(C)C [tubulysin V, Tubulysin V]
- loss of potency on deacetylation of tubulysin U [1]: > 100 fold

Molecule: CC[C@H](C)[C@H](NC(=O)[C@H]1CCCC[N+]1(C)Cc1ccc(NC(=O)[C@H](C)NC(=O)[C@@H](NC(=O)CCCCCN2C(=O)C=CC2=O)C(C)C)cc1)C(=O)N(C)[C@H](C[C@@H](OC(C)=O)c1nc(C(=O)N[C@@H](Cc2ccccc2)C[C@H](C)C(=O)O)cs1)C(C)C (stereo partly drawn) [Compound 30, (2R)-2-(((2S,3S)-1-(((1R,3R)-1-acetoxy-1-(4-(((2R,4S)-4-carboxy-1-phenylpentan-2-yl)carbamoyl)thiazol-2-yl)-4-methylpentan-3-yl)(methyl)amino)-3-methyl-1-oxopentan-2-yl)carbamoyl)-1-(4-((S)-2-((S)-2-(6-(2,5-dioxo-2,5-dihydro-1H-pyrrol-1-yl)hexanamido)-3-methylbutanamido)propanamido)benzyl)-1-methylpiperidin-1-ium]
- IC50, HL60, AML (HL60 AML cells): 0.006 µg/mL
- IC50, L540cy, HL [2]: 0.001 µg/mL
- IC50, HCT-116, CRC (HCT-116 CRC cells): 0.001 µg/mL
- IC50, KM-H2 MDR+ HL (KM-H2 HL cells): <0.00026 µg/mL
- IC50 against a co-culture of L540cy:U268Luc+ cells [3]: 0.006 µg/mL
- IC50, L428, MDR+ HL (L428 MDR+ HL cells; 96 hours): 0.0004 µg/mL

Molecule: CC[C@H](C)[C@H](NC(=O)[C@H]1CCCCN1C)C(=O)N(C)[C@H](C[C@@H](OC(C)=O)c1nc(C(=O)N[C@@H](Cc2ccccc2)C[C@H](C)C(=O)NNC(=O)OCc2ccc(NC(=O)[C@H](CCCNC(N)=O)NC(=O)[C@@H](NC(=O)CCCCCN3C(=O)C=CC3=O)C(C)C)cc2)cs1)C(C)C [Compound 192, 4-((S)-2-((S)-2-(6-(2,5-dioxo-2,5-dihydro-1H-pyrrol-1-yl)hexanamido)-3-methylbutanamido)-5-ureidopentanamido)benzyl 2-((2S,4R)-4-(2-((1R,3R)-1-acetoxy-3-((2S,3S)—N,3-dimethyl-2-((R)-1-methylpiperidine-2-carboxamido)pentanamido)-4-methylpentyl)thiazole-4-carboxamido)-2-methyl-5-phenylpentanoyl)hydrazinecarboxylate]
- IC50, HL60, AML (HL60 AML cells): 0.085 µg/mL (≈ 0.0634 µM)
- IC50, L540cy, HL [2]: 0.117 µg/mL (≈ 0.0873 µM)
- IC50, HCT-116, CRC (HCT-116 CRC cells): 0.302 µg/mL (≈ 0.225 µM)
- IC50, KM-H2 MDR+ HL (KM-H2 HL cells): 0.056 µg/mL (≈ 0.0418 µM)
- less potent than the quaternary amine-linked TubM (30) conjugate (panel of cell lines): 1-3 logs
- IC50, L428, MDR+ HL (L428 MDR+ HL cells; 96 hours): 0.284 µg/mL (≈ 0.212 µM)

B1: hBU12-14: "vcPAB4-AE ... obtained from compound 14 of Scheme 2 and ... monoclonal antibody hBU12, which targets C19+ cells" (conjugate, chains of the INN, looked up)
VH: QVQLQESGPGLVKPSQTLSLTCTVSGGSISTSGMGVGWIRQHPGKGLEWIGHIWWDDDKRYNPALKSRVTISVDTSKNQFSLKLSSVTAADTAVYYCARMELWSYYFDYWGQGTLVTVSS
VL: EIVLTQSPATLSLSPGERATLSCSASSSVSYMHWYQQKPGQAPRLLIYDTSKLASGIPARFSGSGSGTDFTLTISSLEPEDVAVYYCFQGSVYPFTFGQGTKLEIK
modifications: vcPAB4-auristatin E drug-linker 14
- viable cells remaining at the bottom of the dose-response curve, L540cy parental ([2]; Table 4, parenthetic value): 44%
- IC50 for cell growth inhibition, L540cy parental [2, 4]: 5.08 µg/mL
- viable cells remaining at the bottom of the dose-response curve, Karpas-299 (Karpas299 ALCL cells; parenthetic value): 10%
- IC50 for cell growth inhibition, Karpas-299 (Karpas299 ALCL cells; quaternized auristatin E ADC, 8 D+/Ab): 3.903 µg/mL
- viable cells remaining at the bottom of the dose-response curve, Ramos (Ramos NHL cells; parenthetic value): 0%
- IC50 for cell growth inhibition, Ramos (Ramos NHL cells; [5]): 0.0007 µg/mL
- viable cells remaining at the bottom of the dose-response curve, RL (RL cells; parenthetic value): 21%
- IC50 for cell growth inhibition, RL (RL cells; [5]): 2.11 µg/mL
- viable cells remaining at the bottom of the dose-response curve, L428 (L428 MDR+ HL cells; Table 4, parenthetic value): 41%
- IC50 for cell growth inhibition, L428 (L428 MDR+ HL cells; [4]): 8.614 µg/mL
